In brackets after ≈: the same amount, converted by molar mass.
Key:
[1] = test system: M. tuberculosis H37Rv; test: Microplate Alamar Blue MIC assay, M. tuberculosis H37Rv; format: cell-based; details: Mycobacterium tuberculosis, read-out: antibacterial activity M. tuberculosis H37Rv MIC
[2] = test system: M. avium ATCC 25291; test: Microplate Alamar Blue MIC assay, M. avium; format: cell-based, Mycobacterium avium

| Structure (SMILES) | MIC [1] [µg/mL] | antibacterial activity M. avium ATCC 25291 [2] |
| --- | --- | --- |
| CO[C@H]1/C=C/O[C@@]2(C)Oc3c(C)c(O)c4c(O)c(c(/C=N/N5CCN(c6ccc(F)cc6NC(=O)C(Cc6ccccc6)NC(=O)c6ccccc6F)CC5)c(O)c4c3C2=O)NC(=O)/C(C)=C\C=C\[C@H](C)[C@H](O)[C@@H](C)[C@@H](O)[C@@H](C)[C@H](OC(C)=O)[C@@H]1C (some centres unmarked) [IX-398, Rifamycin SV—(CHN)—IX-214 Conjugate] | 0.39 (≈ 0.328 µM) | 0.098 |
| CO[C@H]1/C=C/O[C@@]2(C)Oc3c(C)c(O)c4c(O)c(c(/C=N/N5CCN(CCN6CCN(c7ccc(F)cc7NC(=O)C(Cc7ccccc7)NC(=O)c7ccccc7F)CC6)CC5)c(O)c4c3C2=O)NC(=O)/C(C)=C\C=C\[C@H](C)[C@H](O)[C@@H](C)[C@@H](O)[C@@H](C)[C@H](OC(C)=O)[C@@H]1C (some centres unmarked) [IX-403, Rifamycin SV—(CHN)—IX-402 Conjugate] | 3.13 (≈ 2.41 µM) | 3.13 |
| [2H]C([2H])(c1ccccc1)C(NC(=O)c1ccccc1F)C(=O)Nc1cc(F)ccc1N1CCN(/N=C/c2c3c(O)c4c(O)c(C)c5c(c4c2O)C(=O)[C@@](C)(O/C=C/[C@H](OC)[C@@H](C)[C@@H](OC(C)=O)[C@H](C)[C@H](O)[C@H](C)[C@@H](O)[C@@H](C)/C=C/C=C(/C)C(=O)N3)O5)CC1 (some centres unmarked) [IX-404a, Rifamycin SV—(CHN)—IX-370a Conjugate] | 0.049 (≈ 0.0412 µM) | 0.048 |
| [2H]C([2H])(c1ccccc1)C(NC(=O)c1ccccc1F)C(=O)Nc1cc(F)ccc1N1CCN(C(=O)COc2cc3c(O)c4c(O)c(C)c5c(c24)C(=O)[C@@](C)(O/C=C/[C@H](OC)[C@@H](C)[C@@H](OC(C)=O)[C@H](C)[C@H](O)[C@H](C)[C@@H](O)[C@@H](C)/C=C/C=C(/C)C(=O)N3)O5)CC1 (some centres unmarked) [IX-408a, Rifamycin B—IX-370a Conjugate] | 0.2 (≈ 0.166 µM) | 0.78 |
| [2H]C([2H])(c1ccccc1)C(NC(=O)c1ccccc1F)C(=O)Nc1cc(F)ccc1N1CCN(/N=C/C2=C3NC(=O)/C(C)=C\C=C\[C@H](C)[C@H](O)[C@@H](C)[C@@H](O)[C@@H](C)[C@H](OC(C)=O)[C@H](C)[C@@H](OC)/C=C/O[C@@]4(C)Oc5c(C)c(O)c(c(c5C4=O)C2=O)C3=O)CC1 (some centres unmarked) [IX-476a, Rifamycin S—(CHN)—IX-370a Conjugate] | 0.2 (≈ 0.168 µM) | – |
| CO[C@H]1/C=C/O[C@@]2(C)Oc3c(C)c(O)c4c(O)c(c(/C=N/N5CCN(C)CC5)c(O)c4c3C2=O)NC(=O)/C(C)=C\C=C\[C@H](C)[C@H](O)[C@@H](C)[C@@H](O)[C@@H](C)[C@H](OC(C)=O)[C@@H]1C [rifampin, reference compound] | 0.049 (≈ 0.0595 µM) | 0.024 |

Source: patent US11447502B2, “Antibacterial agents: dual-targeted RNA polymerase inhibitors” (priority 2018, dated 2022)
